Source: patent publication US9682931B2, “Aryloyl(oxy or amino)pentafluorosulfanylbenzene compound, pharmaceutically acceptable salt thereof, and prodrugs thereof” (UBE INDUSTRIES, LTD., priority 2013, dated 2017)
≈ marks a conversion by molar mass, not a printed value. Where two headings read alike, the source gives them in different places. Marks after values point to notes of the source that are not given here.

Assays:
[1] = system: Salmonella typhimurium TA98 strain and TA100 strain; experiment: Growth inhibitory action and bactericidal action on salmonella (preincubation method, with and without S9 mix); type: cell-based; conditions: for Bactericidal action: lowest concentration at which all bacterial cells were killed
Method: Growth inhibitory action and bactericidal action on salmonella
1) Preparation of Test-Substance Solution
Test substances (compounds listed in Table 1) each were prepared by dissolving it in DMSO when used. Preparation was made in such a manner that the highest dose became 5000 μg/plate and the dose lower than this was prepared by a dilution method. In the table, reference numerals of individual compounds correspond to the numbers of the individual compounds synthesized in the above Examples (the same applies to the following Tables).
Salmonella typhimurium TA98 strain and TA100 strain were used.
These were supplied by Japan Bioassay Research Center, proliferated and examined for genetic properties and other properties in accordance with customary methods, in advance. After these strains were confirmed to have these properties, they are cryopreserved (−80° C.) with a DMSO-added medium; and thawed for use in each test.
3) A cryopreserved strain was thawed and inoculated in a 2.5% aqueous nutrient broth (OXOID No. 2) solution and cultured while shaking at 37° C. for 7 hours to obtain a cell suspension, which was subjected to tests.
A minimum glucose agar plate medium (Vital Media AMT-S, manufactured by Kyokuto Pharmaceutical Industrial Co., Ltd.) was used.
The top agar was prepared when used by blending an aqueous solution of 0.5 mM L-histidine and 0.5 mM D-(+)-biotin with an aqueous solution prepared by adding Bacto Agar (Difco) (0.6%) and sodium chloride (0.5%).
S9 was purchased from Kikkoman; whereas a cofactor was previously prepared in accordance with a method known in the art. They were mixed in a customary method to prepare S9 mix.
Using a test system containing S9 mix and a test system containing no S9 mix, a test was carried out in accordance with a preincubation method. As the dose selection, the highest dose was specified as […], which was then serially diluted in a common ratio of 2 to prepare a total of 15 doses to be used in the test.
To a sterile test tube, a test solution (0.1 mL) and 0.1 M Na-phosphate buffer or S9 mix (0.5 mL) and a cell suspension (0.1 mL) were sequentially dispensed. Pre-incubation was carried out at 37° C. for 20 minutes while shaking. After completion of the pre-incubation, top agar (2 mL) kept warm at 45° C. was added, mixed and placed on a minimum glucose agar plate medium. After solidification, the plate was turned upside down and cultured at 37° C. for 48 hours.
After completion of the culture, the state of microbial growth was observed by a stereomicroscope. After a precipitate on the plate was observed, revertant colonies were counted by the naked eye or a colony counter.
7) Criteria for Determination
Growth of both TA98 and TA100 strains was examined in the presence or absence of S9 mix. Among the resultant concentrations at which growth was inhibited, the lowest concentration was specified as the growth inhibitory concentration. Similarly, the bactericidal concentration was specified as the lowest concentration at which all bacterial cells were killed.

[2] = system: K562 human leukemia-derived cell lines; experiment: K562 human leukemia cell-proliferation inhibition test; type: cell-based; conditions: K562 cells, 72 hours, viable cells counted with trypan blue
Method: K562 Human Leukemia Cell-Proliferation Inhibition Test
A cell proliferation inhibition test using K562 cells was performed. The activity in the presence of a test substance was compared to the activity in the presence of green tea polyphenol (GTP). The materials used in the test are as follows.
Cells: K562 human leukemia-derived cell lines (DS Pharma Biomedical Co., Ltd.)
Control Substance: Green Tea Polyphenols, abbreviation: GTP (LKT Laboratories, Inc.)
Culture solution: 10% equine serum-supplemented RPMI1640 medium
A test substance and a control substance were used by dissolving each of them in DMSO. To a solution (0.99 mL) containing K562 cells in a cell concentration of 20,000 cells/mL, a test substance solution or a control substance solution (0.01 mL) was added and the cells were cultured. Seventy two hours later, a part of the cells was stained with trypan blue and viable cells were counted by a counting chamber.
In Table 2, “IC50” denotes the sample concentration inhibiting 50% of cell proliferation

[3] = system: TNF-α mRNA expression in RBL-2H3 cells; experiment: Validation test in RBL-2H3 cell: TNF-α mRNA expression by antigen stimulation (Real-time PCR); type: cell-based, Rat; conditions: 10 μmol/L, untreated control as 100
Method: 2. Validation Test in RBL-2H3 Cell
(Effect on Inflammation Mediator mRNA Expression by Antigen Stimulation)
After a cell model for an allergic reaction, RBL-2H3 cells, were stimulated by an antigen, mRNA expression level of a typical inflammation mediator, TNF-α, in the cell was measured by a Real-time PCR method. In this manner, a confirmation test for anti-inflammatory effect of Compound 3 was performed.
A test substance (Compound 3) (50 mg) was dissolved by adding 50 vol % ethanol (1 mL) to this to obtain an ethanol solution having a concentration of 50 mg/mL. The resultant solution was diluted with a medium. […] As a control (for comparison), Wortmannin (10 μM) was used. Herein, the concentrations were all indicated as the concentrations in cell supernatants.
RBL-2H3 cells were sensitized with anti-DNP-IgE antibody for 2 hours. A medium or a test solution was added and heat was applied at 37° C. for 10 minutes and then, a DNP-HSA solution was added. A reaction was carried out at 37° C. for 30 minutes. After completion of the reaction, total RNA was extracted from a cell fraction and cDNA was synthesized by use of Random Primer and Reverse Transcriptase. After a specific primer for a desired gene (ITNF-α,β-actin) was added, a Real-time PCR method was carried out in accordance with SYBR Green method using the resultant cDNA as a template to determine the expression level of mRNA. The expression ratio of the desired gene relative to a housekeeping gene, β-actin, was calculated. In this manner, a change in expression level relative to an untreated control was calculated.
Main test conditions and outline of the operation will be described below.
Cell: Rat basophil leukemic cell, RBL-2H3 [Human Sciences Foundation]
Antigen stimulation: Anti-DNP-IgE antibody, DNP labeled albumin
[Sigma-Aldrich Corporation]
Desired genes: IL-4, MCP-1, TNF-α, β-actin (housekeeping gene)
Measurement apparatus: StepOnePlus Real-Time PCR System [Life
Technologies Corporation] Measurement conditions: 95° C. (20 sec)→{95° C. (3 sec)→60° C. (30 sec)}×40 cycles
mRNA expression level (%) was obtained based on the expression level of the untreated control as 100.

[4] = TA98 and TA100, presence or absence of S9 mix
[5] = lowest concentration at which growth was inhibited, TA98 and TA100, presence or absence of S9 mix
[6] = Homo sapiens, K562, 72 h, read-out: IC50

| SMILES | Bactericidal action [1, 4] [μg/plate] | Growth inhibition [1, 5] [μg/plate] | IC50 [2, 6] [µg/mL] | other results |
| --- | --- | --- | --- | --- |
| CC(=O)Oc1ccc(/C=C/C(=O)Oc2ccc(S(F)(F)(F)(F)F)cc2)cc1OC(C)=O [Compound 22, 4-(3,4-diacetoxycinnamoyloxy)pentafluorosulfanylbenzene] | 156 | 156 |  |  |
| CC(=O)Oc1cc(C(=O)Nc2ccc(S(F)(F)(F)(F)F)cc2)cc(OC(C)=O)c1OC(C)=O [Compound 9, 4-(3,4,5-triacetoxybenzoylamino)pentafluorosulfanylbenzene] | 625 | 156 | 1.2 (≈ 2.41 µM) |  |
| CC(=O)Oc1ccc(/C=C/C(=O)Nc2ccc(S(F)(F)(F)(F)F)cc2)cc1OC(C)=O [Compound 4, 4-(3,4-diacetoxycinnamoylamino)pentafluorosulfanylbenzene] | 156 |  | 2.2 (≈ 4.73 µM) | Growth inhibition ([1]; TYPHIMURIUM): <39.1*^1 μg/plate |
| O=C(/C=C/c1ccc(O)c(O)c1)Nc1ccc(S(F)(F)(F)(F)F)cc1 [Compound 5, 4-(3,4-dihydroxycinnamoylamino)pentafluorosulfanylbenzene] | 78.1 | 19.5 |  | IC50 [2]: 0.36 µg/mL (≈ 0.944 µM) |
| COc1cc(/C=C/C(=O)Nc2ccc(S(F)(F)(F)(F)F)cc2)ccc1OC(C)=O [Compound 20, 4-(4-acetoxy-3-methoxycinnamoylamino)pentafluorosulfanylbenzene] |  | 156 | 1.7 (≈ 3.89 µM) |  |
| COC[C@H]1OC(=O)c2coc3c2[C@@]1(C)C1=C(C3=O)[C@@H]2CCC(=O)[C@@]2(C)C[C@H]1OC(C)=O [Wortmannin, reference compound] |  |  |  | TNF-α mRNA expression level [3]: 45% |
| O=C(Nc1cc(S(F)(F)(F)(F)F)ccc1O)c1cc(O)c(O)c(O)c1 [Compound 12, 3-(3,4,5-trihydroxybenzoylamino)-4-hydroxypentafluorosulfanylbenzene] | 1250 | 313 |  |  |
| O=C(Nc1cccc(S(F)(F)(F)(F)F)c1)c1cc(O)c(O)c(O)c1 [Compound 11, 3-(3,4,5-trihydroxybenzoylamino)pentafluorosulfanylbenzene] | 625 | 78.1 | 1.5 (≈ 4.04 µM) |  |
| O=C(/C=C/c1ccccc1)Nc1ccc(S(F)(F)(F)(F)F)cc1 [Compound 35, 4-(cinnamoylamino)pentafluorosulfanylbenzene] | >2500 | 39.1 | 0.2 (≈ 0.573 µM) |  |
| O=C(Nc1ccc(S(F)(F)(F)(F)F)cc1NC(=O)c1cc(O)c(O)c(O)c1)c1cc(O)c(O)c(O)c1 [Compound 14, 3,4-bis(3,4,5-trihydroxybenzoylamino)pentafluorosulfanylbenzene] | 1250 | 625 |  |  |
| COc1cc(C(=O)Nc2ccc(S(F)(F)(F)(F)F)cc2)ccc1[N+](=O)[O-] [Compound 59, 4-(4-nitro-3-methoxybenzoylamino)pentafluorosulfanylbenzene] |  |  | 1.1 (≈ 2.76 µM) |  |
| C=CCc1cc(C(=O)Nc2ccc(S(F)(F)(F)(F)F)cc2)cc(OC)c1O [Compound 30, 4-(4-hydroxy-5-(2-propenyl)-3-methoxybenzoylamino)pentafluorosulfanylbenzene] |  |  | 0.9 (≈ 2.2 µM) |  |
| O=C(Nc1ccc(S(F)(F)(F)(F)F)cc1)c1c(O)cc(O)cc1O [Compound 23, 4-(2,4,6-trihydroxybenzoylamino)pentafluorosulfanylbenzene] |  |  | 4.1 (≈ 11 µM) |  |
| O=C(Nc1ccc(S(F)(F)(F)(F)F)cc1)c1cnccn1 [Compound 79, 4-(pyrazin-2-yl)carbonylaminopentafluorosulfanylbenzene] |  |  | 4.2 (≈ 12.9 µM) |  |
| COc1cc(/C=C/C(=O)Nc2ccc(S(F)(F)(F)(F)F)cc2)ccc1OCC=C(C)C [Compound 37, 4-(4-(3-methyl-2-butenyloxy)-3-methoxycinnamoylamino)pentafluorosulfanylbenzene] |  |  | 4.8 (≈ 10.4 µM) |  |
| O=C(Nc1ccc(S(F)(F)(F)(F)F)cc1)c1cocn1 [Compound 81, 4-(oxazol-4-yl)carbonylaminopentafluorosulfanylbenzene] |  |  | 2 (≈ 6.36 µM) |  |
